Measurements as given in US20230416238A1, “N-[(1,3-BENZOXAZOL-2-YL)-HETEROCYCLE]AMIDE DERIVATIVES FOR THE TREATMENT AND PROPHYLAXIS OF HEPATITIS B VIRUS INFECTION” (Hoffmann-La Roche Inc., priority 2020, published 2023).

What was measured:
Assay type in all cases: cell-based
HBsAg = assay: PHH HBV natural infection assay, HBsAg (alphalisa); settings: Hepatitis B virus, Hepatocyte, read-out: HBsAg IC50
Method in brief: (§1)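 Primary human hepatocytes infected with HBV at 200 GE/cell plus 4% PEG8000 for 24 h, then sandwich-cultured 72 h in medium with 1% DMSO. Compound applied twice at 72-h intervals; supernatant HBsAg and HBeAg quantified by AlphaLISA.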

[1] = Cytotoxicity in PHH natural infection assay (Cell Counting Kit-8); settings: HBV-infected primary human hepatocytes, CCK8
Method in brief: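 HBV-infected primary human hepatocytes (200 GE/cell, 4% PEG8000, 24 h), then sandwich-cultured 72 h. Cells dosed at varying concentrations for two 72-hour cycles, with medium refreshed. Cytotoxicity read by CCK-8 at end of treatment.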

HBeAg = assay: PHH HBV natural infection assay, HBeAg (alphalisa); settings: Hepatitis B virus, Hepatocyte, read-out: HBeAg IC50
Method in brief: as §1

SMILES | IC50 (HBsAg) [µM] | CC50 at 144 h [1] [µM] | IC50 (HBeAg) [µM]
O=C(NC1CC2(CCN(c3nc4ccc(Cl)cc4o3)C2)C1)C1CCS(=O)(=O)C1 (stereo not drawn) [Example 73, N-[6-(6-chloro-1,3-benzoxazol-2-yl)-6-azaspiro[3.4]octan-2-yl]-1,1-dioxo-thiolane-3-carboxamide] | 6.32 | > 100 | 3.05
O=C(NC1CCC2(CCN(c3nc4cc(Cl)ccc4o3)C2)C1)C1CCS(=O)(=O)C1 (stereo not drawn) [Example 74, N-[2-(5-chloro-1,3-benzoxazol-2-yl)-2-azaspiro[4.4]nonan-8-yl]-1,1-dioxo-thiolane-3-carboxamide] | 4.33 | > 100 | 3.73
O=C(NC1CCC2(CCN(c3nc4cc(Cl)ccc4o3)C2)C1)c1ccc(C(F)(F)F)o1 (stereo not drawn) [Example 75, N-[2-(5-chloro-1,3-benzoxazol-2-yl)-2-azaspiro[4.4]nonan-8-yl]-5-(trifluoromethyl)furan-2-carboxamide] | 8.28 | 91.2 | 7.81
O=C(NC1CC2(CCN(c3nc4cc(Cl)ccc4o3)CC2)C1)C1CCS(=O)(=O)C1 (stereo not drawn) [Example 76, N-[7-(5-chloro-1,3-benzoxazol-2-yl)-7-azaspiro[3.5]nonan-2-yl]-1,1-dioxo-thiolane-3-carboxamide] | 2.26 | > 100 | 2.27
O=C(NC1CC2(CCN(c3nc4cc(Cl)ccc4o3)CC2)C1)c1ccc(C(F)(F)F)o1 [Example 77, N-[7-(5-chloro-1,3-benzoxazol-2-yl)-7-azaspiro[3.5]nonan-2-yl]-5-(trifluoromethyl)furan-2-carboxamide] | 5.04 | > 100 | 2.98
CC(C)(C)C(=O)NC1CCC2(CC1)CCN(c1nc3cc(Cl)ccc3o1)CC2 [Example 78, N-[3-(5-chloro-1,3-benzoxazol-2-yl)-3-azaspiro[5.5]undecan-9-yl]-2,2-dimethyl-propanamide] | 1.47 | 57.9 | 1.2
CC(C)C(=O)NC1CCC2(CC1)CCN(c1nc3cc(Cl)ccc3o1)CC2 [Example 79, N-[3-(5-chloro-1,3-benzoxazol-2-yl)-3-azaspiro[5.5]undecan-9-yl]-2-methyl-propanamide] | 8.84 | > 100 | 11.6
CC(C)CC(=O)NC1CCC2(CC1)CCN(c1nc3cc(Cl)ccc3o1)CC2 [Example 80, N-[3-(5-chloro-1,3-benzoxazol-2-yl)-3-azaspiro[5.5]undecan-9-yl]-3-methyl-butanamide] | 2.7 | > 100 | 2.79
CS(=O)(=O)CC(=O)NC1CCC2(CC1)CCN(c1nc3cc(Cl)ccc3o1)CC2 [Example 81, N-[3-(5-chloro-1,3-benzoxazol-2-yl)-3-azaspiro[5.5]undecan-9-yl]-2-methylsulfonyl-acetamide] | 3.49 | 67.3 | 2.28
NS(=O)(=O)CCC(=O)NC1CCC2(CC1)CCN(c1nc3cc(Cl)ccc3o1)CC2 [Example 82, N-[3-(5-chloro-1,3-benzoxazol-2-yl)-3-azaspiro[5.5]undecan-9-yl]-3-sulfamoyl-propanamide] | 3.09 | 76.3 | 2.3
CS(=O)(=O)CCC(=O)NC1CCC2(CC1)CCN(c1nc3cc(Cl)ccc3o1)CC2 [Example 83, N-[3-(5-chloro-1,3-benzoxazol-2-yl)-3-azaspiro[5.5]undecan-9-yl]-3-methylsulfonyl-propanamide] | 2.49 | 98.6 | 1.79
O=C(CC1CCOC1)NC1CCC2(CC1)CCN(c1nc3cc(Cl)ccc3o1)CC2 (stereo not drawn) [Example 84, N-[3-(5-chloro-1,3-benzoxazol-2-yl)-3-azaspiro[5.5]undecan-9-yl]-2-tetrahydrofuran-3-yl-acetamide] | 2.02 | 58.6 | 1.37
O=C(NC1CCC2(CC1)CCN(c1nc3cc(Cl)ccc3o1)CC2)C1COC1 [Example 85, N-[3-(5-chloro-1,3-benzoxazol-2-yl)-3-azaspiro[5.5]undecan-9-yl]oxetane-3-carboxamide] | 8.75 | 70.9 | 6.13
O=C(NC1CCC2(CC1)CCN(c1nc3cc(Cl)ccc3o1)CC2)C1CCOC1 (stereo not drawn) [Example 86, N-[3-(5-chloro-1,3-benzoxazol-2-yl)-3-azaspiro[5.5]undecan-9-yl]tetrahydrofuran-3-carboxamide] | 2.89 | 82.7 | 2.8
CC1(C(=O)NC2CCC3(CC2)CCN(c2nc4cc(Cl)ccc4o2)CC3)CCSCC1 [Example 87, N-[3-(5-chloro-1,3-benzoxazol-2-yl)-3-azaspiro[5.5]undecan-9-yl]-4-methyl-tetrahydrothiopyran-4-carboxamide] | 1.43 | > 100 | 1.13
O=C(NC1CCC2(CC1)CCN(c1nc3cc(Cl)ccc3o1)CC2)C1CS(=O)(=O)C1 [Example 88, N-[3-(5-chloro-1,3-benzoxazol-2-yl)-3-azaspiro[5.5]undecan-9-yl]-1,1-dioxo-thietane-3-carboxamide] | 1.52 | 28.9 | 1.25
O=C(NC1CCC2(CC1)CCN(c1nc3ccc(Cl)cc3o1)CC2)C1CS(=O)(=O)C1 [Example 89, N-[3-(6-chloro-1,3-benzoxazol-2-yl)-3-azaspiro[5.5]undecan-9-yl]-1,1-dioxo-thietane-3-carboxamide] | 6.76 | 88.1 | 3.93
O=C(NC1CCC2(CC1)CCN(c1nc3cc(Cl)ccc3o1)CC2)C1CCS(=O)(=O)C1 (stereo not drawn) [Example 90, N-[3-(5-chloro-1,3-benzoxazol-2-yl)-3-azaspiro[5.5]undecan-9-yl]-1,1-dioxo-thiolane-3-carboxamide] | 1.35 | 73.9 | 1.08
O=C(NC1CCC2(CC1)CCN(c1nc3cc(Cl)ccc3o1)CC2)[C@@H]1CCS(=O)(=O)C1 [Example 91, (3S)—N-[3-(5-chloro-1,3-benzoxazol-2-yl)-3-azaspiro[5.5]undecan-9-yl]-1,1-dioxo-thiolane-3-carboxamide] | 1.12 | 89.2 | 0.676
O=C(NC1CCC2(CC1)CCN(c1nc3cc(Cl)ccc3o1)CC2)[C@H]1CCS(=O)(=O)C1 [Example 92, (3R)—N-[3-(5-chloro-1,3-benzoxazol-2-yl)-3-azaspiro[5.5]undecan-9-yl]-1,1-dioxo-thiolane-3-carboxamide] | 0.857 | 83.9 | 0.75
CC1(C(=O)NC2CCC3(CC2)CCN(c2nc4cc(Cl)ccc4o2)CC3)CCS(=O)(=O)C1 (stereo not drawn) [Example 93, N-[3-(5-chloro-1,3-benzoxazol-2-yl)-3-azaspiro[5.5]undecan-9-yl]-3-methyl-1,1-dioxo-thiolane-3-carboxamide] | 1.82 | > 100 | 1.19
O=C(NC1CCC2(CC1)CCN(c1nc3ccc(Cl)cc3o1)CC2)C1CCS(=O)(=O)C1 (stereo not drawn) [Example 94, N-[3-(6-chloro-1,3-benzoxazol-2-yl)-3-azaspiro[5.5]undecan-9-yl]-1,1-dioxo-thiolane-3-carboxamide] | 1.73 | 90.6 | 1.4
O=C(NC1CCC2(CC1)CCN(c1nc3cc(Cl)ccc3o1)CC2)C1CC2(C1)CS(=O)(=O)C2 [Example 95, N-[3-(5-chloro-1,3-benzoxazol-2-yl)-3-azaspiro[5.5]undecan-9-yl]-2,2-dioxo-2-λ^6-thiaspiro[3.3]heptane-6-carboxamide] | 1.67 | > 100 | 3.62
O=C(NC1CCC2(CC1)CCN(c1nc3cc(Cl)ccc3o1)CC2)C1CCS(=O)(=O)CC1 [Example 96, N-[3-(5-chloro-1,3-benzoxazol-2-yl)-3-azaspiro[5.5]undecan-9-yl]-1,1-dioxo-thiane-4-carboxamide] | 0.957 | 93.6 | 0.727
O=C(NC1CCC2(CC1)CCN(c1nc3ccc(Cl)cc3o1)CC2)C1CCS(=O)(=O)CC1 [Example 97, N-[3-(6-chloro-1,3-benzoxazol-2-yl)-3-azaspiro[5.5]undecan-9-yl]-1,1-dioxo-thiane-4-carboxamide] | 3.52 | > 100 | 2.48
CC1(C(=O)NC2CCC3(CC2)CCN(c2nc4cc(Cl)ccc4o2)CC3)CC[S+]([O-])CC1 (stereo not drawn) [Example 98, N-[3-(5-chloro-1,3-benzoxazol-2-yl)-3-azaspiro[5.5]undecan-9-yl]-4-methyl-1-oxo-thiane-4-carboxamide] | 4.23 | > 100 | 2.23
CC1(C(=O)NC2CCC3(CC2)CCN(c2nc4cc(Cl)ccc4o2)CC3)CCS(=O)(=O)CC1 [Example 99, N-[3-(5-chloro-1,3-benzoxazol-2-yl)-3-azaspiro[5.5]undecan-9-yl]-4-methyl-1,1-dioxo-thiane-4-carboxamide] | 2.63 | 94.1 | 2.02
O=C(NC1CCC2(CC1)CCN(c1nc3cc(Cl)ccc3o1)CC2)C1CCCS(=O)(=O)C1 (stereo not drawn) [Example 100, N-[3-(5-chloro-1,3-benzoxazol-2-yl)-3-azaspiro[5.5]undecan-9-yl]-1,1-dioxo-thiane-3-carboxamide] | 2.44 | > 100 | 1.72
O=C(NC1CCC2(CC1)CCN(c1nc3cc(Cl)ccc3o1)CC2)C1CCC(F)(F)C1 (stereo not drawn) [Example 101, N-[3-(5-chloro-1,3-benzoxazol-2-yl)-3-azaspiro[5.5]undecan-9-yl]-3,3-difluoro-cyclopentanecarboxamide] | 4.16 | > 100 | 4.29
